Assay results published in the NIST ThermoML archive (doi:10.1016/j.jct.2019.105891).

What was measured:
[1] = refractive index (Na D-line) (dimensionless); details: 100 kPa, Liquid, Standard Abbe refractometry
[2] = 100 kPa, Liquid, Falling or rolling sphere viscometry
[3] = refractive index (Na D-line) (dimensionless); xn = mol fraction of the nth substance listed; details: 100 kPa, Liquid, Standard Abbe refractometry
[4] = xn = mol fraction of the nth substance listed; details: 100 kPa, Liquid, Falling or rolling sphere viscometry

Nc1ccccc1 [aniline]
Details	refractive index, 293.15 K	refractive index, 303.15 K	refractive index, 313.15 K	refractive index, 323.15 K	viscosity, 293.15 K [mPa·s]	viscosity, 303.15 K [mPa·s]	viscosity, 313.15 K [mPa·s]	viscosity, 323.15 K [mPa·s]
[1]	1.58481	1.58152	1.57823	1.57494	–	–	–	–
[2]	–	–	–	–	4.38	3.24	2.47	1.95

CCCCn1cc[n+](C)c1.F[B-](F)(F)F [1-butyl-3-methylimidazolium tetrafluoroborate] + Nc1ccccc1
x1 = 1
Details	refractive index, 293.15 K	refractive index, 303.15 K	refractive index, 313.15 K	refractive index, 323.15 K	viscosity, 293.15 K [mPa·s]	viscosity, 303.15 K [mPa·s]	viscosity, 313.15 K [mPa·s]	viscosity, 323.15 K [mPa·s]
[3]	1.42144	1.41913	1.41621	1.4133	–	–	–	–
[4]	–	–	–	–	135.7	80.4	51.4	34.92

Nc1ccccc1 [aniline] + CCCCn1cc[n+](C)c1.F[B-](F)(F)F
Details	refractive index, [3]	viscosity, [4] [mPa·s]
293.15 K, x2 = 0	1.58481	4.38
293.15 K, x2 = 0.1001	1.55273	7.66
293.15 K, x2 = 0.4991	1.47256	36.82
293.15 K, x2 = 0.6032	1.45814	50.14
293.15 K, x2 = 0.7021	1.44443	65.33
293.15 K, x2 = 0.7907	1.43496	81.22
293.15 K, x2 = 0.9026	1.42669	104.99
303.15 K, x2 = 0	1.58152	3.24
303.15 K, x2 = 0.1001	1.54951	5.46
303.15 K, x2 = 0.4991	1.46852	22.05
303.15 K, x2 = 0.6032	1.4544	31.1
303.15 K, x2 = 0.7021	1.44151	40.82
303.15 K, x2 = 0.7907	1.43264	50.78
303.15 K, x2 = 0.9026	1.42433	66.19
313.15 K, x2 = 0	1.57823	2.47
313.15 K, x2 = 0.1001	1.54532	4.04
313.15 K, x2 = 0.4991	1.46448	14.67
313.15 K, x2 = 0.6032	1.45067	20.79
313.15 K, x2 = 0.7021	1.43859	26.92
313.15 K, x2 = 0.7907	1.43031	33.47
313.15 K, x2 = 0.9026	1.42197	42.66
323.15 K, x2 = 0	1.57494	1.95
323.15 K, x2 = 0.1001	1.54114	3.08
323.15 K, x2 = 0.2028	1.51499	4.56
323.15 K, x2 = 0.4991	1.46044	10.52
323.15 K, x2 = 0.6032	1.44694	14.73
323.15 K, x2 = 0.7021	1.43567	18.58
323.15 K, x2 = 0.7907	1.42799	23.06
323.15 K, x2 = 0.9026	1.41961	29.65

CCn1cc[n+](C)c1.F[B-](F)(F)F [1-ethyl-3-methylimidazolium tetrafluoroborate]
Details	refractive index, 293.15 K	refractive index, 303.15 K	refractive index, 313.15 K	refractive index, 323.15 K	viscosity, 293.15 K [mPa·s]	viscosity, 303.15 K [mPa·s]	viscosity, 313.15 K [mPa·s]	viscosity, 323.15 K [mPa·s]
[1]	1.41509	1.41117	1.40802	1.40512	–	–	–	–
[2]	–	–	–	–	45.69	30.54	21.82	16.42

CCCCn1cc[n+](C)c1.F[B-](F)(F)F [1-butyl-3-methylimidazolium tetrafluoroborate]
Details	refractive index, 293.15 K	refractive index, 303.15 K	refractive index, 313.15 K	refractive index, 323.15 K	viscosity, 293.15 K [mPa·s]	viscosity, 303.15 K [mPa·s]	viscosity, 313.15 K [mPa·s]	viscosity, 323.15 K [mPa·s]
[1]	1.42144	1.41913	1.41621	1.4133	–	–	–	–
[2]	–	–	–	–	135.7	80.4	51.4	34.92

CCn1cc[n+](C)c1.F[B-](F)(F)F [1-ethyl-3-methylimidazolium tetrafluoroborate] + Nc1ccccc1
x1 = 1
Details	refractive index, 293.15 K	refractive index, 303.15 K	refractive index, 313.15 K	refractive index, 323.15 K	viscosity, 293.15 K [mPa·s]	viscosity, 303.15 K [mPa·s]	viscosity, 313.15 K [mPa·s]	viscosity, 323.15 K [mPa·s]
[3]	1.41509	1.41117	1.40802	1.40512	–	–	–	–
[4]	–	–	–	–	45.69	30.54	21.82	16.42
